Test results from ChEMBL document CHEMBL1127183, “Synthesis of 6-amino-5-oxo-7-phenyl-1,4-oxazepines as conformationally constrained gauche () dipeptide mimetics” (Bioorg Med Chem Lett, 1993).

Target: Angiotensin-converting enzyme (Homo sapiens, UniProt P12821)
Assay: Binding affinity against Angiotensin I converting enzyme

Sequence of Angiotensin-converting enzyme (P12821 whole entry): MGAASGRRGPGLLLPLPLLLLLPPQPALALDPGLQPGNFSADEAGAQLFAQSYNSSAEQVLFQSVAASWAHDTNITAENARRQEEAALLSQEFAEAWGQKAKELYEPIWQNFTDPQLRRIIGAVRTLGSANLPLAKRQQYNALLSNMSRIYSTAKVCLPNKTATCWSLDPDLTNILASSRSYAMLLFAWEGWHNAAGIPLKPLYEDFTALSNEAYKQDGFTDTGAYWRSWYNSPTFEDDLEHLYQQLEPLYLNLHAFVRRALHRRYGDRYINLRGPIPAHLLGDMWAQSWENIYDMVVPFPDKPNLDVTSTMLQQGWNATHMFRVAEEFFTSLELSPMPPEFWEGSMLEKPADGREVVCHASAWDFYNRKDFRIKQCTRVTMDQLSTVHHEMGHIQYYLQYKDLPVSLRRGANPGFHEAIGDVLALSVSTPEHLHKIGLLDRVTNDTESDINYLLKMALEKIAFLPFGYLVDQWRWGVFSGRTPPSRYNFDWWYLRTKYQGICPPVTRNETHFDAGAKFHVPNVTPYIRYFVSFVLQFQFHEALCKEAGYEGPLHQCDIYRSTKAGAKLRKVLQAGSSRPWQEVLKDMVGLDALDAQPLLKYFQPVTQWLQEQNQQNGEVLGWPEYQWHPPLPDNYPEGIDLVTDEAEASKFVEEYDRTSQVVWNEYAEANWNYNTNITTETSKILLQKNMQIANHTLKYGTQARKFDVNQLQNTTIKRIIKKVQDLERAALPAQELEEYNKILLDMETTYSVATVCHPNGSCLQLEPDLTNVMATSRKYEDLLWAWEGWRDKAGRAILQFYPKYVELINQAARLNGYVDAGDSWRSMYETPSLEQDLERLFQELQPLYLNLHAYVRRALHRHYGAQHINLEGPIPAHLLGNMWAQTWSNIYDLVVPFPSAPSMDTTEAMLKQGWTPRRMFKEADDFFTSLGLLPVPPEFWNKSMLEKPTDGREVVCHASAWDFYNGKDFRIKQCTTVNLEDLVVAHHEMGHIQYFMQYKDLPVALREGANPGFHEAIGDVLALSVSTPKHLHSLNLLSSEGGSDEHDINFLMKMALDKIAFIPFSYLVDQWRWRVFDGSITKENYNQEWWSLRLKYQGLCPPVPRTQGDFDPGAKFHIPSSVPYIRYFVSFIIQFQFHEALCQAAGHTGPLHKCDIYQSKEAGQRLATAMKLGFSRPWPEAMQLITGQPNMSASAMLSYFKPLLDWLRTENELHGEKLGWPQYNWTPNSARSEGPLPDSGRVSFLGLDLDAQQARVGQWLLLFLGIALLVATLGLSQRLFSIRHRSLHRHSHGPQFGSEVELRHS

Ki: 50 µM
SMILES: CC(C)C[C@H](C(=O)O)N1CCO[C@@H](c2ccccc2)[C@H](NC(=O)[C@H](S)Cc2ccccc2)C1=O
